In paper PMC5974779, “Prediction of Drug-Induced Hepatotoxicity Using Long-Term Stable Primary Hepatic 3D Spheroid Cultures in Chemically Defined Conditions” (Toxicological Sciences, 2018):

Tested on: primary human hepatocytes (PHH) 3D spheroids
Conditions: not given
For `NNc1nnc(NN)c2ccccc12` [Dihydralazine], the “Chemically defined spheroids (this study) 20x” value (“Chemically defined spheroids” for short) was “Positive”. In the case of `NC12CC3CC(CC(C3)C1)C2` [Amantadine], the “Chemically defined spheroids” value is reported as “Negative”. With `COc1ccc([C@@H]2Sc3ccccc3N(CCN(C)C)C(=O)[C@@H]2OC(C)=O)cc1` [Diltiazem] the “Chemically defined spheroids” value was “Negative”. In the case of `CC(=O)CC(c1ccccc1)c1c(O)c2ccccc2oc1=O` (centres unmarked) [Warfarin], the “Chemically defined spheroids” value is reported as “Negative”. With `N=C(N)NC(=O)c1nc(Cl)c(N)nc1N` [Amiloride] the “Chemically defined spheroids” value was “Negative”. For `O=C(O)c1cc(/N=N/c2ccc(S(=O)(=O)Nc3ccccn3)cc2)ccc1O` [Sulfasalazine], the “Chemically defined spheroids” value was “Positive”. For `Cc1cccc(C)c1OCC(C)N` (centres unmarked) [Mexiletine], the “Chemically defined spheroids” value was “Positive”. With `CN(C)CCCN1c2ccccc2CCc2ccc(Cl)cc21` [Clomipramine] the “Chemically defined spheroids” value was “Positive”. With `CCc1c(C)[nH]c2c1C(=O)C(CN1CCOCC1)CC2` (centres unmarked) [Molindone] the “Chemically defined spheroids” value was “Negative”. For `Clc1ccc(COC(Cn2ccnc2)c2ccc(Cl)cc2Cl)c(Cl)c1` (centres unmarked) [Miconazole], the “Chemically defined spheroids” value was “Negative”. For `CCN(CC)C(=S)SSC(=S)N(CC)CC` [Disulfiram], the “Chemically defined spheroids” value was “Positive”. With `C=C[C@H]1C[N@@]2CC[C@H]1C[C@@H]2[C@@H](O)c1ccnc2ccc(OC)cc12` [Quinidine] the “Chemically defined spheroids” value was “Positive”. In the case of `CN1CCN(CCCN2c3ccccc3Sc3ccc(C(F)(F)F)cc32)CC1` [Trifluoperazine], the “Chemically defined spheroids” value is reported as “Negative” and the “hepatotoxicity evaluation in CD-spheroids” value is reported as “predicted to be DILI negative”. In the case of `N[C@@H](Cc1ccc(O)c(O)c1)C(=O)O` [Levodopa], the “Chemically defined spheroids” value is reported as “Negative”. With `CCCSc1ccc2nc(NC(=O)OC)[nH]c2c1` [Albendazole] the “Chemically defined spheroids” value was “Negative” and the “hepatotoxicity evaluation in CD-spheroids” value was “predicted to be DILI negative”. In the case of `CC(=O)Nc1ccc(OCC(O)CNC(C)C)cc1` (centres unmarked) [Practolol], the “Chemically defined spheroids” value is reported as “Negative”. In the case of `O=c1ccc2ccccc2o1` [Coumarin], the “Chemically defined spheroids” value is reported as “Positive”.

Tested on: clinical DILI in man
Conditions: clinical DILI classification in man (POS/NEG); cited from earlier work
In the case of `NNc1nnc(NN)c2ccccc12` [Dihydralazine], the DILI in vivo is listed as “POS”.

Same assay, conditions: clinical DILI classification used in this study, Supplementary Table 2; ref Chen et al., 2011; Guo et al., 2005; O'Brien et al., 2006; Sakatis et al., 2012; Suzuki et al., 2010; Xu et al., 2008; cited from earlier work
For `NNc1nnc(NN)c2ccccc12` [Dihydralazine], the Classified as is listed as “POS”.

Same assay, conditions: clinical DILI classification, Supplementary Table 1; ref Chen et al., 2011; Guo et al., 2005; O'Brien et al., 2006; Sakatis et al., 2012; Suzuki et al., 2010; Xu et al., 2008; cited from earlier work
For `NNc1nnc(NN)c2ccccc12` [Dihydralazine], the DILI in vivo is listed as “POS”.

Same assay, conditions: in vivo; cited from earlier work
In the case of `NC12CC3CC(CC(C3)C1)C2` [Amantadine], the Classified as is given as “NEG”, the “Clinical DILI class (panel heading of Figure 4)” value (shortened to “Clinical DILI class”) is given as “DILI negative” and the DILI in vivo is given as “NEG”. For the same molecule, the “FDA (0-8)” value was 3, the “FDA (Severity)” value was “less DILI concern” and the “Type of DILI” value was “Non-hepatotoxic”. For the same molecule, the “Xu et al. (2008)” value was “Negative”. For `N=C(N)NC(=O)c1nc(Cl)c(N)nc1N` [Amiloride], the Classified as is listed as “NEG”, the “Clinical DILI class” value is listed as “DILI negative” and the DILI in vivo is listed as “NEG”. The “FDA (0-8)” value was 3, the “Suzuki et al. (2010)” value was 2 and the “Type of DILI” value was “Non-hepatotoxic”. The “Xu et al. (2008)” value was “Negative”. In the case of `Cc1cccc(C)c1OCC(C)N` (centres unmarked) [Mexiletine], the Classified as is listed as “POS”, the “Clinical DILI class” value is listed as “High DILI concern” and the DILI in vivo is listed as “POS”. For the same molecule, the “FDA (0-8)” value was 3, the “FDA (Severity)” value was “less DILI concern” and the “Suzuki et al. (2010)” value was 1. For the same molecule, the “Type of DILI” value was “Hepatocellular injury or Mixed hepatitis” and the “Xu et al. (2008)” value was “Positive”. In the case of `CCc1c(C)[nH]c2c1C(=O)C(CN1CCOCC1)CC2` (centres unmarked) [Molindone], the Classified as is given as “POS”, the “Clinical DILI class” value is given as “High DILI concern” and the DILI in vivo is given as “POS”. The “Type of DILI” value was “Hepatocellular injury”. In the case of `CN1CCN(CCCN2c3ccccc3Sc3ccc(C(F)(F)F)cc32)CC1` [Trifluoperazine], the Classified as is listed as “POS”, the “Clinical DILI class” value is listed as “High DILI concern” and the DILI in vivo is listed as “POS”. For the same molecule, the “FDA (0-8)” value was 2, the “FDA (Severity)” value was “less DILI concern” and the “O'Brien et al. (2003)” value was “Moderately”. For the same molecule, the “Type of DILI” value was “Cholestatic injury or Mixed hepatitis” and the “Xu et al. (2008)” value was “Positive”. In the case of `CCCSc1ccc2nc(NC(=O)OC)[nH]c2c1` [Albendazole], the Classified as is listed as “POS”, the “Clinical DILI class” value is listed as “Severe DILI” and the DILI in vivo is listed as “POS”. The “FDA (0-8)” value was 7, the “Suzuki et al. (2010)” value was 1 and the “Type of DILI” value was “Cholestatic injury or Mixed hepatitis”. The “Xu et al. (2008)” value was “Positive”. In the case of `O=c1ccc2ccccc2o1` [Coumarin], the Classified as is listed as “POS”, the “Clinical DILI class” value is listed as “High DILI concern” and the DILI in vivo is listed as “POS”. The “Type of DILI” value was “Cholestatic injury”.

Same assay, conditions: reported pattern of liver damage, Supplementary Table 2; ref literature; cited from earlier work
In the case of `NNc1nnc(NN)c2ccccc12` [Dihydralazine], the “Type of DILI” value is given as “Hepatocellular injury or Cholestatic injury”.

Tested on: not given
Conditions: therapeutic total cmax; ref PMID; cited from earlier work
For `NNc1nnc(NN)c2ccccc12` [Dihydralazine], the Cmax is given as 2.63 µM. For `NC12CC3CC(CC(C3)C1)C2` [Amantadine], the Cmax is listed as 4.3 µM. In the case of `COc1ccc([C@@H]2Sc3ccccc3N(CCN(C)C)C(=O)[C@@H]2OC(C)=O)cc1` [Diltiazem], the Cmax is given as 0.327 µM. For `CC(=O)CC(c1ccccc1)c1c(O)c2ccccc2oc1=O` (centres unmarked) [Warfarin], the Cmax is given as 4.86 µM. For `N=C(N)NC(=O)c1nc(Cl)c(N)nc1N` [Amiloride], the Cmax is listed as 0.087 µM. For `O=C(O)c1cc(/N=N/c2ccc(S(=O)(=O)Nc3ccccn3)cc2)ccc1O` [Sulfasalazine], the Cmax is given as 15.1 µM. For `Cc1cccc(C)c1OCC(C)N` (centres unmarked) [Mexiletine], the Cmax is given as 35 µM. In the case of `CCc1c(C)[nH]c2c1C(=O)C(CN1CCOCC1)CC2` (centres unmarked) [Molindone], the Cmax is listed as 1.54 µM. In the case of `Clc1ccc(COC(Cn2ccnc2)c2ccc(Cl)cc2Cl)c(Cl)c1` (centres unmarked) [Miconazole], the Cmax is given as 0.024 µM. In the case of `CCN(CC)C(=S)SSC(=S)N(CC)CC` [Disulfiram], the Cmax is given as 1.35 µM. In the case of `C=C[C@H]1C[N@@]2CC[C@H]1C[C@@H]2[C@@H](O)c1ccnc2ccc(OC)cc12` [Quinidine], the Cmax is given as 8.66 µM. For `CN1CCN(CCCN2c3ccccc3Sc3ccc(C(F)(F)F)cc32)CC1` [Trifluoperazine], the Cmax is listed as 0.0045 µM. In the case of `N[C@@H](Cc1ccc(O)c(O)c1)C(=O)O` [Levodopa], the Cmax is listed as 6.85 µM. In the case of `CCCSc1ccc2nc(NC(=O)OC)[nH]c2c1` [Albendazole], the Cmax is given as 0.9 µM. In the case of `CC(=O)Nc1ccc(OCC(O)CNC(C)C)cc1` (centres unmarked) [Practolol], the Cmax is given as 18.8 µM. In the case of `O=c1ccc2ccccc2o1` [Coumarin], the Cmax is given as 10 µM.

Tested on: not given
Conditions: ref DrugBank and Prescribers' Digital Reference database; cited from earlier work
For `NNc1nnc(NN)c2ccccc12` [Dihydralazine], the “Extent of hepatic metabolism” value is listed as “Moderate”.

Tested on: PHH 2D sandwich cultures
Conditions: 100× cmax, 24 h, high content imaging; ref Xu et al., 2008; cited from earlier work
In the case of `CN(C)CCCN1c2ccccc2CCc2ccc(Cl)cc21` [Clomipramine], the “hepatotoxicity detection in 2D sandwich cultures of PHH” value (“hepatotoxicity detection” for short) is given as “liver toxicity was not recognized”. For `CN1CCN(CCCN2c3ccccc3Sc3ccc(C(F)(F)F)cc32)CC1` [Trifluoperazine], the “hepatotoxicity detection” value is listed as “flagged as hepatotoxic”. In the case of `CCCSc1ccc2nc(NC(=O)OC)[nH]c2c1` [Albendazole], the “hepatotoxicity detection” value is given as “flagged as hepatotoxic”.

Same assay, conditions: PHH 2D sandwich cultures, 100x Cmax; ref Xu 2008; cited from earlier work
In the case of `CCc1c(C)[nH]c2c1C(=O)C(CN1CCOCC1)CC2` (centres unmarked) [Molindone], the “2Dsw (Xu 2008) 100x” value is listed as “Negative”. In the case of `CN1CCN(CCCN2c3ccccc3Sc3ccc(C(F)(F)F)cc32)CC1` [Trifluoperazine], the “2Dsw (Xu 2008) 100x” value is listed as “Positive”. In the case of `N[C@@H](Cc1ccc(O)c(O)c1)C(=O)O` [Levodopa], the “2Dsw (Xu 2008) 100x” value is given as “Negative”. In the case of `CCCSc1ccc2nc(NC(=O)OC)[nH]c2c1` [Albendazole], the “2Dsw (Xu 2008) 100x” value is listed as “Positive”.

Same assay, conditions: cited from earlier work
In the case of `NC12CC3CC(CC(C3)C1)C2` [Amantadine], the “2Dsw (Xu 2008) 100x” value is listed as “Negative”. In the case of `N=C(N)NC(=O)c1nc(Cl)c(N)nc1N` [Amiloride], the “2Dsw (Xu 2008) 100x” value is listed as “Negative”. In the case of `Cc1cccc(C)c1OCC(C)N` (centres unmarked) [Mexiletine], the “2Dsw (Xu 2008) 100x” value is given as “Positive”. For `C=C[C@H]1C[N@@]2CC[C@H]1C[C@@H]2[C@@H](O)c1ccnc2ccc(OC)cc12` [Quinidine], the “2Dsw (Xu 2008) 100x” value is listed as “Positive”.

Same assay, conditions: ref Xu et al., 2008; cited from earlier work
For `CN1CCN(CCCN2c3ccccc3Sc3ccc(C(F)(F)F)cc32)CC1` [Trifluoperazine], the “reactive oxygen species levels in 2D sandwich cultures of PHH” value is listed as “only slight increases in reactive oxygen species levels”. In the case of `CCCSc1ccc2nc(NC(=O)OC)[nH]c2c1` [Albendazole], the “reactive oxygen species levels in 2D sandwich cultures of PHH” value is given as “only slight increases in reactive oxygen species levels”.
